{"source": "patent US6855695B2", "about": "“Water-soluble SHPs as novel alkylating agents” (Vion Pharmaceuticals, Inc., priority 2003, dated 2005)", "key": {"[1]": {"assay": "Water-solubility at room temperature", "type": "physicochemical", "details": "thermodynamic from solid; for solubility: determined visually by incremental addition, not at equilibrium", "experimental": "The solubility of the newly synthesized SHPs (19, 20a, 21, and 22a) is much higher than that of VNP40101 M, as shown in Table 1.\nFor the free phosphoric acid 19 and 20a, an excess amount of the drug was placed in a glass vial containing 2.0 mL of water. The vials were shaken in a Glas Col rotary apparatus at room temperature for 24 hours. The suspension containing undissolved drug was centrifuged; the supernatant was carefully separated and analyzed by HPLC for drug concentration. […] Aqueous solutions of 19 and 20a were colorless. Similarly, the solubility of the sodium salts 21 and 22a was determined visually by adding incremental quantities of the drug to 2.0 mL of water in a glass vial. The vials were shaken at room temperature in a Glas Col rotary apparatus until the drug dissolved entirely. Additional fixed quantities of drug were added and the vials shaken until complete dissolution. This process was continued until no more drug dissolved. Compounds 21 and 22a are highly water-soluble. Because of limited drug supplies determination of the solubilities at equilibrium could not be obtained. Solubilities of >0.98 and >1.35 g/mL for 21 and 22a, respectively, were determined."}, "[2]": {"assay": "Stability in 100% human plasma", "type": "in vitro ADME", "details": "both sexes, 37° C.", "experimental": "(§1) The stability of compounds 19, 20a and VNP40101M was evaluated in 100% human plasma (pooled mixed gender, BioChemed) at a final concentration of 50 μg/mL. Each drug (19 or 20a) was incubated in human plasma at 37° C. for a maximum of two hours. Aliquots of the incubation mixture were taken at various time points and extracted with acetonitrile. The extract was separated by centrifugation and analyzed directly by HPLC. In a similar manner, VNP40101M was incubated in human plasma at 37° C. for a maximum of one hour. At various time points, aliquots of the incubation mixture were removed and extracted with 0.5% H3PO4 in acetonitrile. The extract was separated by centrifugation and analyzed directly by HPLC. For comparison, the stability of each drug incubated in 50 mM Tris buffered saline (pH 7.6) instead of 100% human plasma was also determined."}, "alkaline phosphatase": {"test_system": "alkaline phosphatase", "assay": "In vitro enzymatic bioconversion by alkaline phosphatase", "type": "in vitro ADME", "details": "bovine, alkaline phosphatase from bovine intestinal mucosa; approx. 0.055 unit/mL AP in 50 mM Tris buffered saline pH 7.6, 37° C., drug approx. 50 μg/mL", "experimental": "Each drug, at a final concentration of approximately 50 μg/mL, was incubated at 37° C. in 50 mM Tris buffered saline (pH 7.6) containing approximately 0.055 unit/mL of the phosphatase enzyme.\n(§2) A control sample of each drug at a final concentration of 50 μg/mL in 50 mM Tris buffered saline (pH 7.6) without AP was also incubated at 37° C. Aliquots of each solution were taken periodically; disappearance of the tested drug was determined by HPLC."}, "[3]": {"assay": "Pharmacokinetic study in rats, single iv bolus, HPLC-UV", "type": "in vivo, female Sprague-Dawley rats", "details": "iv bolus 50 mg/kg", "experimental": "Preliminary investigations of the pharmacokinetic profiles of prodrugs 19 and 20a were conducted in female Sprague-Dawley rats (10 weeks old, 250 g, Charles River). Each prodrug was administered as a single bolus intravenous (iv) injection via the jugular vein at a dose of 50 mg per kg (mpk) of body weight. Blood samples were collected on the day of dosing at the following time points: pre-dose and approximately 2, 10, 30 min, 1, 2, and 24 hr, after dosing. At each time point, approximately 0.2 mL of blood was collected in a tube containing an anticoagulant (heparin), which was immediately acidified by adding 0.005 mL of a 2.0 M citric acid solution. Then, the tube was inverted 4 to 6 times and immediately placed on ice. The blood samples were centrifuged within 30 min after blood collection at 3,000 rpm for 10-20 min at 2-8° C., and the plasma fraction was transferred to a labeled Nunc cryovial. The plasma samples were immediately frozen on dry ice and stored at −20° C. until HPLC-UV analysis. Animals were euthanized with CO2 inhalation after experiments.\nBioanalytical methods were developed to quantify these prodrugs in rat plasma using HPLC-UV at either 220 nm or 230 nm. Each plasma sample (0.1 mL) was extracted with 0.2 mL of acetonitrile. The extract was separated by centrifugation and analyzed directly by HPLC-UV. HPLC calibration standards were prepared in control rat plasma and processed as above.\nComparison to VNP101M (10 mpk of radioactive VNP101M was used in previous experiments) is difficult because of the difference in doses used in two the studies."}, "[4]": {"assay": "Aqueous stability in potassium phosphate buffers (50 mM), pH 3, 5, 7 and 9, HPLC", "type": "physicochemical", "details": "potassium phosphate buffer 50 mM", "experimental": "The stabilities of PAP-101M (19), OAP-101M (20a), and VNP40101M were investigated in potassium phosphate buffers (50 mM) at pH 3, 5, 7 and 9 and at room temperature (22-25° C.). One sample was prepared at each pH for each drug; the initial drug concentration in each sample was 50 μg/mL. Each sample was analyzed by HPLC repetitively, at various time points, to determine the\nconcentration of the respective drug. The first-order kinetic half-lives of each drug were calculated."}, "[5]": {"test_system": "leukemia cells implanted intracranially", "details": "Finch et al. 2001; cited from earlier work"}, "[6]": {"assay": "Stability in 50 mM Tris buffered saline pH 7.6 (control without AP or plasma)", "type": "physicochemical", "details": "50 mM Tris buffered saline pH 7.6, 37° C.", "experimental": "as §2, §1"}, "[7]": {"details": "room temperature, Krishna et al. 2001; cited from earlier work"}, "B16-F10 murine melanoma": {"test_system": "B16-F10 murine melanoma", "assay": "In vivo anti-tumor activity, B16-F10 murine melanoma implanted subcutaneously in C57BL/6 mice", "details": "for Tumor growth inhibition on Day 24: ip weekly for four weeks from Day 2, 80 mg/kg VNP40101M, equal molar doses of prodrugs", "experimental": "(§3) The anti-tumor effects of VNP40101 M and prodrugs, including PAP-101M (19), OAP-101M (20a), PAP-Na-101M (21), and OAP-Na-101M (22a), were evaluated in both the B16-F10 murine melanoma and HTB177 human lung carcinoma models. B16-F10 melanoma cells were implanted subcutaneously (5×10^5 cells) into C57BL/6 mice, which were randomized into groups of ten immediately after tumor cell implantation (Day 0). On Day 2, mice were injected intraperitoneally with either a bolus injection of 0.1 mL PBS or drug. The treatment was carried out weekly for four consecutive weeks. Tumor measurement in three dimensions was determined once a week with the formula L×H×W/2, where L, H, and W represent length, height, and width, respectively. […] On Day 24, tumor growth was inhibited by 81% in mice treated with 80 mg/kg of VNP40101M, and by 75 to 91% in mice treated with equal molar doses of the prodrugs. […] The toxicity of these drugs in mice was mild as determined by body weight loss and animal appearance, as illustrated in FIG. 13."}, "[8]": {"test_system": "HTB177 human lung carcinoma", "assay": "In vivo anti-tumor activity, HTB177 human lung carcinoma in nu/nu CD-1 mice", "experimental": "as §3"}, "[9]": {"details": "pH 9, room temperature (22-25° C.), read-out: Half-life, pH 9 (converted)"}, "[10]": {"details": "female, Sprague-Dawley, rat, plasma"}}}
{"smiles": "CN(Cc1ccc(OP(=O)([O-])[O-])cc1)C(=O)N(N(CCCl)S(C)(=O)=O)S(C)(=O)=O.[Na+].[Na+]", "note": "[PAP-Na-101M (21), Phosphoric acid 4-{N-[1,2-bis(methylsulfonyl)-2-(2-chloroethyl)-hydrazinylcarbonyl]-N-methylaminomethyl}-phenyl ester disodium salt]", "values": [{"measurement": "solubility at 24 h", "setting": "[1]", "result": "> 980", "unit": "mg/mL"}, {"measurement": "solubility", "setting": "[1]", "result": "> 980", "unit": "mg/mL"}]}
{"smiles": "CN(Cc1ccc(OP(=O)(O)O)cc1)C(=O)N(N(CCCl)S(C)(=O)=O)S(C)(=O)=O", "note": "[PAP-101M (19), Phosphoric acid mono-{4-{N-[1,2-bis(methylsulfonyl)-2-(2-chloroethyl)-hydrazinylcarbonyl]-N-methylaminomethyl}-phenyl} ester]", "values": [{"measurement": "half-life at 50 μg/mL", "setting": "[2]", "result": 34.3, "unit": "min"}, {"measurement": "solubility at 24 h", "setting": "[1]", "result": 293, "unit": "mg/mL"}, {"measurement": "half-life at 50 μg/mL", "setting": "alkaline phosphatase", "result": 21.1, "unit": "min"}, {"measurement": "Pharmacokinetic determination in rat plasma (in words)", "setting": "[3]", "result": "fast conversion or clearance"}]}
{"smiles": "CNC(=O)N(N(CCCl)S(C)(=O)=O)S(C)(=O)=O", "note": "[VNP40101M, 1,2-Bis(methylsulfonyl)-1-(2-chloroethyl)-2-(methylaminocarbonyl) hydrazine]", "values": [{"measurement": "half-life at 50 μg/mL", "setting": "[2]", "result": 14.5, "unit": "min"}, {"measurement": "half-life at 50 μg/mL", "setting": "[4]; pH 5, room temperature (22-25° C.), read-out: Half-life, pH 5 (converted)", "result": 118, "unit": "days"}, {"measurement": "half-life at 50 μg/mL", "setting": "[4]; pH 7, room temperature (22-25° C.), read-out: Half-life, pH 7 (converted)", "result": 0.508, "unit": "days"}, {"measurement": "half-life at 50 μg/mL", "setting": "[4]; [9]", "result": 0.00479, "unit": "days"}, {"measurement": "Log cell kill", "setting": "[5]", "result": "> 6.54", "unit": "log cell kill"}, {"measurement": "half-life at 50 μg/mL", "setting": "[6]", "result": 20.5, "unit": "min"}, {"measurement": "Water-solubility", "setting": "[7]", "result": 0.66, "unit": "mg/mL"}, {"measurement": "Tumor growth inhibition on Day 24", "setting": "B16-F10 murine melanoma", "result": 81, "unit": "%"}]}
{"smiles": "CN(Cc1ccccc1OP(=O)(O)O)C(=O)N(N(CCCl)S(C)(=O)=O)S(C)(=O)=O", "note": "[OAP-101M (20a), Phosphoric acid mono-{2-{N-[1,2-bis(methylsulfonyl)-2-(2-chloroethyl)-hydrazinylcarbonyl]-N-methylaminomethyl}-phenyl} ester]", "values": [{"measurement": "half-life at 50 μg/mL", "setting": "[2]", "result": 53.3, "unit": "min"}, {"measurement": "half-life at 50 μg/mL", "setting": "[4]; [9]", "result": 171, "unit": "days"}, {"measurement": "solubility at 24 h", "setting": "[1]", "result": 46, "unit": "mg/mL"}, {"measurement": "half-life at 50 μg/mL", "setting": "alkaline phosphatase", "result": 29, "unit": "min"}, {"measurement": "half-life", "setting": "[3]; female, Sprague-Dawley, rat, plasma, iv, 50 mg/kg", "result": "~14", "unit": "min"}, {"measurement": "AUC", "setting": "[3]; [10]", "result": 21900, "unit": "ng·h/mL"}, {"measurement": "Cmax", "setting": "[3]; [10]", "result": 239, "unit": "µg/mL"}, {"measurement": "clearance", "setting": "[3]; [10]", "result": 37.8, "unit": "mL/min/kg"}, {"measurement": "Vd", "setting": "[3]; female, Sprague-Dawley, rat, plasma, read-out: Vss", "result": 0.146, "unit": "L/kg"}, {"measurement": "Anti-tumor effect in HTB177 human lung carcinoma (FIGS. 14 and 15)", "setting": "[8]", "result": "holdout promise"}, {"measurement": "Survival of tumor-bearing mice (FIG. 12)", "setting": "B16-F10 murine melanoma; B16-F10 tumor-bearing mice, versus other drugs", "result": "survived longer"}, {"measurement": "Tumor growth inhibition on Day 24", "setting": "B16-F10 murine melanoma", "result": 91, "unit": "%"}]}
{"smiles": "CN(Cc1ccccc1OP(=O)([O-])[O-])C(=O)N(N(CCCl)S(C)(=O)=O)S(C)(=O)=O.[Na+].[Na+]", "note": "[OAP-Na-101M (22a), Phosphoric acid 2-{N-[1,2-bis(methylsulfonyl)-2-(2-chloroethyl)-hydrazinylcarbonyl]-N-methylaminomethyl}-phenyl ester disodium salt]", "values": [{"measurement": "solubility at 24 h", "setting": "[1]", "result": "> 1350", "unit": "mg/mL"}, {"measurement": "solubility", "setting": "[1]", "result": "> 1350", "unit": "mg/mL"}, {"measurement": "Anti-tumor effect in HTB177 human lung carcinoma (FIGS. 14 and 15)", "setting": "[8]", "result": "holdout promise"}, {"measurement": "Tumor growth inhibition on Day 24", "setting": "B16-F10 murine melanoma", "result": 89.5, "unit": "%"}]}
